Here are results for 16 compounds from PMC9582194, “The effect of helix-inducing constraints and downsizing upon a transcription block survival-derived functional cJun antagonist” (Cell Reports. Physical Science, 2022).

One data set addresses T1, cJun (Homo sapiens, UniProt P05412).
T1 construct: The same 60 amino acid cJun construct, encompassing the entire bZIP domain, was used for all experiments
In words: CD thermal denaturation of peptide-cJun heterodimers (Tm). The class given is binding. The settings on record: for Tm of peptide-cJun heterodimer: CD ellipticity at 222 nm, 1-90 °C, peptide (5 μM)/cJun (5 μM), 20 mM potassium phosphate, 150 mM potassium fluoride, 2 mM TCEP pH 7.4, two-state fit, duplicate experiments, ± one SD; for ΔTm of cJun heterodimer due to lactamization: cyclized versus its linear (non-lactamized) counterpart. How it is done: (§1) The precise nature of the interaction between the cJun DBD and the rationally designed acidic domain of HW1 is unknown. HW1 was, therefore, iteratively truncated from the N terminus (HW2–6) to investigate the effect on cJun binding and cJun/TRE DNA antagonism (Table 1). Peptide fraction helicity (fH) was determined by quantifying the circular dichroism (CD) signal at 222 nm of peptide-only samples (Figure S1). Thermal denaturation experiments were then used to determine the melting temperature (Tm) of peptide-cJun heterodimers, which serves as an approximate measure of target engagement. CD was also used to investigate the functional activity of peptides in antagonizing the cJun/TRE DNA interaction. […] This provides a clear and direct measurement of the proportion of DNA bound to cJun. As antagonist peptide concentration was increased, the peak shifted to overlay with that of free TRE-DNA (Figure S4). For each peptide, the data were fit to a Hill equation to determine half-maximal inhibitory concentration (IC50) values, specific to these assay conditions, providing a clear comparative measure of antagonism. The same 60 amino acid cJun construct, encompassing the entire bZIP domain, was used for all experiments regardless of antagonist peptide length.
Figure 2 Iterative N-terminal truncation of HingeW reduces cJun binding and antagonism (A) Thermal denaturation profiles for iteratively truncated peptide (5 μM)/cJun (5 μM) heterodimer samples. (B) CD antagonism data produced by monitoring the shift in a DNA specific peak to provide a direct readout of cJun-DNA binding. Peptides are added at the indicated concentrations to a pre-incubated mixture of cJun (20 μM) and TRE DNA (5 μM). Data points were averaged from triplicate experiments, and error bars indicate one SD. The data were fitted to a Hill equation to determine IC50 values. Some higher peptide concentration data points for HW6 and HW9 are not shown in this plot for clarity.

Data set [1] can be described thus: Peptide fraction helicity by CD at 222 nm, peptide-only samples. The data set is classed as physicochemical. As to conditions: for fH, peptide fraction helicity: CD signal at 222 nm of peptide-only samples, pH 7.4 phosphate/KF/TCEP buffer, duplicate experiments. How it is done:
as §1

Positions of bridges follow the written chain, without caps; N, C: chain ends. Residues, ends and D or L forms follow the SMILES beside them. No end group written: not given here.

T1 sequence (P05412 252-315 limits assumed): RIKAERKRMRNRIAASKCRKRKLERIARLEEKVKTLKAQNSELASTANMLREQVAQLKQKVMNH

For the compound “Ac-EAEELVVEEDVLEEEIEQLEERNYALRKEIEDLQ-NH2 [HW16]”, on cJun, the “Tm of peptide-cJun heterodimer” value was 53.8 ± 5.3 °C. Moreover, the “fH, peptide fraction helicity” value in data set [1] is 31.2%.

For “Ac-EAEELVVEEDVLEEEIEQLEEKNKALKDEIEDLQKQY-NH2 [HW26]”, the “Tm of peptide-cJun heterodimer” value on cJun was 56.2 ± 1.3 °C. In addition, the “fH, peptide fraction helicity” value in data set [1] amounted to 36.0%.

On to `CC[C@H](C)[C@H](NC(=O)[C@H](CCC(=O)O)NC(=O)[C@H](CCCCN)NC(=O)[C@H](CCCNC(=N)N)NC(=O)[C@H](CC(C)C)NC(=O)[C@H](C)NC(=O)[C@H](Cc1ccc(O)cc1)NC(=O)[C@H](CC(N)=O)NC(=O)[C@H](CCCNC(=N)N)NC(=O)[C@H](CCC(=O)O)NC(=O)[C@H](CCC(=O)O)NC(=O)[C@H](CC(C)C)NC(=O)[C@H](CCC(N)=O)NC(=O)[C@H](CCC(=O)O)NC(=O)[C@@H](NC(=O)[C@H](CCC(=O)O)NC(=O)[C@@H]1CC(=O)NCCCC[C@H](NC(=O)[C@H](CCC(=O)O)NC(=O)[C@H](CCC(=O)O)NC(=O)[C@@H](NC(=O)[C@@H](NC(=O)[C@H](CC(C)C)NC(=O)[C@H](CCC(=O)O)NC(=O)[C@H](CCC(=O)O)NC(=O)[C@H](C)NC(=O)[C@H](CCC(=O)O)NC(C)=O)C(C)C)C(C)C)C(=O)N[C@@H](C(C)C)C(=O)N[C@@H](CC(C)C)C(=O)N[C@@H](CCC(=O)O)C(=O)N1)[C@@H](C)CC)C(=O)N[C@@H](CCC(=O)O)C(=O)N[C@@H](CC(=O)O)C(=O)N[C@@H](CC(C)C)C(=O)N[C@@H](CCC(N)=O)C(=O)N[C@@H](CCCCN)C(=O)N[C@@H](CCC(N)=O)C(N)=O` [HW23] (Ac-EAEELVVEEKVLEDEIEQLEERNYALRKEIEDLQKQ-NH2; lactam 10-14), for which, at cJun, the “ΔTm of cJun heterodimer due to lactamization” value is around 9 °C.

As to “Ac-EAEELVVEEDVLEEEIKQLEDRNYALRKEIEDLQKQ-NH2 [HW24]”, the “Tm of peptide-cJun heterodimer” value on cJun was 55.5 ± 1.7 °C. The “fH, peptide fraction helicity” value in data set [1] was 37.0%.

On to “Ac-EAEELVVEEDVLEEEIEQLEERNYALRKEIEDL-NH2 [HW9]”, for which the “Tm of peptide-cJun heterodimer” value on cJun came to 44.8 ± 1.2 °C. For the same compound, the “fH, peptide fraction helicity” value in data set [1] is on record as 32.8%.

“Ac-LVVEEDVLEEEIEQLEEKNKALKDEIEDLQKQLEKLY-NH2 [HW10]”: the “Tm of peptide-cJun heterodimer” value on cJun was 64.3 ± 1.3 °C. Besides, the “fH, peptide fraction helicity” value in data set [1] is recorded as 45.6%.

On to “EDVLEEEIEQLEERNYALRKEIEDLQKQLEKLGAP-NH2 (C-terminus assumed) [HW6]”, for which the “Tm of peptide-cJun heterodimer” value at cJun is 55.1 ± 1.1 °C. For the same compound, in data set [1], the “fH, peptide fraction helicity” value was 38.0%.

As for “Ac-KEAEDLVVEEDVLEEEIEQLEERNYALRKEIKDLQDQ-NH2 [HW18]”, the “Tm of peptide-cJun heterodimer” value at cJun was 56.5 ± 1.6 °C. Moreover, the “fH, peptide fraction helicity” value in data set [1] came to 38.7%.

As to “Ac-LVVEEDVLEEEIEQLEERNYALRKEIEDLQKQLEDL-NH2 [HW12]”, the “Tm of peptide-cJun heterodimer” value at cJun is 62.1 ± 1.4 °C. Also, the “fH, peptide fraction helicity” value in data set [1] worked out at 43.0%.

As for “Ac-LARENEELEKEAEELVVEEDVLEEEIEQLEERNYALRKEIEDLQKQLEKL-NH2 [HW2]”, the “Tm of peptide-cJun heterodimer” value on cJun was 68.5 ± 1.1 °C. Moreover, in data set [1], the “fH, peptide fraction helicity” value came to 32.8%.

In the case of “Ac-EAEELVVEEDVLEEEIEQLEERNYALRKEIKDLQDQ-NH2 [HW28]”, the “Tm of peptide-cJun heterodimer” value at cJun came to 55.6 ± 1.2 °C. Moreover, the “fH, peptide fraction helicity” value in data set [1] is 35.0%.

For `CC[C@H](C)[C@H](NC(=O)[C@H](CCC(=O)O)NC(=O)[C@H](CCCCN)NC(=O)[C@H](CCCNC(=N)N)NC(=O)[C@H](CC(C)C)NC(=O)[C@H](C)NC(=O)[C@H](Cc1ccc(O)cc1)NC(=O)[C@H](CC(N)=O)NC(=O)[C@H](CCCNC(=N)N)NC(=O)[C@H](CCC(=O)O)NC(=O)[C@H](CCC(=O)O)NC(=O)[C@H](CC(C)C)NC(=O)[C@H](CCC(N)=O)NC(=O)[C@H](CCC(=O)O)NC(=O)[C@@H](NC(=O)[C@H](CCC(=O)O)NC(=O)[C@H](CCC(=O)O)NC(=O)[C@H](CCC(=O)O)NC(=O)[C@H](CC(C)C)NC(=O)[C@@H](NC(=O)[C@H](CC(=O)O)NC(=O)[C@H](CCC(=O)O)NC(=O)[C@H](CCC(=O)O)NC(=O)[C@@H](NC(=O)[C@@H](NC(=O)[C@H](CC(C)C)NC(=O)[C@@H]1CC(=O)NCCCC[C@H](NC(C)=O)C(=O)N[C@@H](CCC(=O)O)C(=O)N[C@@H](C)C(=O)N[C@@H](CCC(=O)O)C(=O)N1)C(C)C)C(C)C)C(C)C)[C@@H](C)CC)C(=O)N[C@@H](CCCCN)C(=O)N[C@@H](CC(=O)O)C(=O)N[C@@H](CC(C)C)C(=O)N[C@@H](CCC(N)=O)C(=O)N[C@@H](CC(=O)O)C(=O)N[C@@H](CCC(N)=O)C(N)=O` [HW19] (Ac-KEAEDLVVEEDVLEEEIEQLEERNYALRKEIKDLQDQ-NH2; lactam 1-5 (inferred)), the “Tm of peptide-cJun heterodimer” value on cJun came to 58.5 ± 1.0 °C. In addition, the “fH, peptide fraction helicity” value in data set [1] was 40.1%. The “change in fH due to lactamization” value in data set [1] (cyclized versus its linear counterpart) is recorded as around 1%.

As to `CC[C@H](C)[C@H](NC(=O)[C@H](CCC(=O)O)NC(=O)[C@H](CCCCN)NC(=O)[C@H](CCCNC(=N)N)NC(=O)[C@H](CC(C)C)NC(=O)[C@H](C)NC(=O)[C@H](Cc1ccc(O)cc1)NC(=O)[C@H](CC(N)=O)NC(=O)[C@H](CCCNC(=N)N)NC(=O)[C@H](CCC(=O)O)NC(=O)[C@H](CCC(=O)O)NC(=O)[C@H](CC(C)C)NC(=O)[C@H](CCC(N)=O)NC(=O)[C@H](CCC(=O)O)NC(=O)[C@@H](NC(=O)[C@H](CCC(=O)O)NC(=O)[C@H](CCC(=O)O)NC(=O)[C@H](CCC(=O)O)NC(=O)[C@H](CC(C)C)NC(=O)[C@@H](NC(=O)[C@H](CC(=O)O)NC(=O)[C@H](CCC(=O)O)NC(=O)[C@H](CCC(=O)O)NC(=O)[C@@H]1CC(=O)NCCCC[C@H](NC(=O)[C@H](C)NC(=O)[C@H](CCC(=O)O)NC(C)=O)C(=O)N[C@@H](CCC(=O)O)C(=O)N[C@@H](CC(C)C)C(=O)N[C@@H](C(C)C)C(=O)N1)C(C)C)[C@@H](C)CC)C(=O)N[C@@H](CCC(=O)O)C(=O)N[C@@H](CC(=O)O)C(=O)N[C@@H](CC(C)C)C(=O)N[C@@H](CCC(N)=O)C(=O)N[C@@H](CCCCN)C(=O)N[C@@H](CCC(N)=O)C(N)=O` [HW21] (Ac-EAKELVDEEDVLEEEIEQLEERNYALRKEIEDLQKQ-NH2; lactam 3-7), the “ΔTm of cJun heterodimer due to lactamization” value on cJun was around 2 °C.

Regarding “Ac-EAEELVVEEKVLEDEIEQLEERNYALRKEIEDLQKQ-NH2 [HW22]”, on cJun, the “Tm of peptide-cJun heterodimer” value came out at 54.9 ± 1.2 °C. Moreover, the “fH, peptide fraction helicity” value in data set [1] came out at 37.2%.

As for “Ac-EAKELVDEEDVLEEEIEQLEERNYALRKEIEDLQKQ-NH2 [HW20]”, on cJun, the “Tm of peptide-cJun heterodimer” value is 57.5 ± 1.1 °C. In data set [1], the “fH, peptide fraction helicity” value is 36.9%.

Take “Ac-LEKEAEELVVEEDVLEEEIEQLEERNYALRKEIEDLQKQLEKL-NH2 [HW3]”: on cJun, the “Tm of peptide-cJun heterodimer” value is 67.9 ± 0.9 °C. In data set [1], the “fH, peptide fraction helicity” value is reported as 38.3%.
